Experimental data published in patent US8580783B2, “[1,2,4]triazolo [1,5-c]pyrimidine derivatives as Hsp90 modulators” (Nerviano Medical Sciences S.r.l., priority 2010, dated 2013).

Tested on: Her2 protein levels in BT474 breast cancer cells
Test: Her2 degradation assay (marker for Hsp90 inhibition)
Assay type: cell-based
Details: Homo sapiens, BT-474, 8 hours with compound, Her2 immunocytochemistry, ArrayScan vTi
Method: Its inhibition impairs the capacity to fold or stabilize its client proteins, leading to the proteosomal dependent degradation of these unfolded proteins.
Cellular Her2 levels were measured by immunocytochemistry, and quantified using an ArrayScan vTi instrument (Cellomics Thermo Scientific).
Studies were performed as follows: 5000 cells/well are seeded in 96 well plates (Perkin Elmer) in DMEM/5% FCS and incubated for 48 hours at 37° C., 5% CO2.
Medium is then replaced with fresh medium containing test compounds at the required concentration. Concentration curves are prepared in DMEM/10% FCS from compound stocks in DMSO, and final DMSO concentration is 0.1% (v/v). Duplicate wells for each concentration point are prepared, with a typical highest compound concentration of 30 μM. […] Non-specific binding sites are blocked by incubating wells for 1 hour in PBS containing 3% (w/v) BSA. […] At least 10 fields, corresponding to at least 900 cells, are read for each well.

IC50: 6.78 µM
SMILES: Nc1nc2c3c(F)cccc3nc(Cc3ccc4c(c3)OCO4)n2n1 [5-(1,3-benzodioxol-5-ylmethyl)-10-fluoro[1,2,4]triazolo[1,5-c]quinazolin-2-amine]
